Test results: patent US12357565B2, “Ocular implant containing a tyrosine kinase inhibitor” (Ocular Therapeutix, Inc., priority 2020, dated 2025)

Tests used:
[1] = Rugo et al. 2005, patients; cited from earlier work
[2] = system: VEGF-induced vascular leakage; test: VEGF challenge in rabbits: vascular leakage scored by fluorescein angiography; format: in vivo; details: rabbit; 1.25 mg Avastin® alone (group 3)
[3] = 1.25 mg dose, rabbits (Sinapis et al., 2011); cited from earlier work

Compound	Clearance half-life (t1/2) [1]	Time after which vascular leakage re-occurred (effect lasted until) [2]	Half-life [3]
CNC(=O)c1ccccc1Sc1ccc2c(/C=C/c3ccccn3)n[nH]c2c1 [axitinib, N-methyl-2-[3-((E)-2-pyridin-2-yl-vinyl)-1H-indazol-6-ylsulfanyl]-benzamide]	a few hours	–	–
Avastin®: anti-VEGF therapeutic, 1.25 mg intravitreal	–	3 months	158 h
